From patent publication US10894817B2, “Fatty acid modified urocortin-2 analogs for the treatment of diabetes and chronic kidney disease” (priority 2016, dated 2021)
Starred links: 1 amine or outer side, 2 acyl side, 3 side chain; linkers in the order of their positions; H or OH if unused. Non-standard residues stand in square brackets, D forms with d. Residues, ends and D or L forms follow the SMILES beside them. Groups on a side chain read outwards from the residue. *: point of attachment. C20 diacid = O=C(O)CCCCCCCCCCCCCCCCCCC(=O)*; γGlu = O=C(O)[C@H](CCC(=O)[*:2])N[*:1]; NMeI = CC[C@H](C)[C@H](NC)C(=O)O; AEEA = NCCOCCOCC(=O)O

Tests used:
human CRHR2b = target: T1, human CRHR2b (Homo sapiens, UniProt Q13324); test: human CRHR2b cell-based cAMP assay; conditions: cAMP assay, CHO cells transfected with human CRHR2b; mean ± SEM of runs; read-out: hCRHR2b Average EC50
T1 construct: expressed in transfected cells; host or cells: Chinese Hamster Ovary (CHO) cells, transient transfection
T1 sequence (Q13324 1-438 isoform Q13324-2): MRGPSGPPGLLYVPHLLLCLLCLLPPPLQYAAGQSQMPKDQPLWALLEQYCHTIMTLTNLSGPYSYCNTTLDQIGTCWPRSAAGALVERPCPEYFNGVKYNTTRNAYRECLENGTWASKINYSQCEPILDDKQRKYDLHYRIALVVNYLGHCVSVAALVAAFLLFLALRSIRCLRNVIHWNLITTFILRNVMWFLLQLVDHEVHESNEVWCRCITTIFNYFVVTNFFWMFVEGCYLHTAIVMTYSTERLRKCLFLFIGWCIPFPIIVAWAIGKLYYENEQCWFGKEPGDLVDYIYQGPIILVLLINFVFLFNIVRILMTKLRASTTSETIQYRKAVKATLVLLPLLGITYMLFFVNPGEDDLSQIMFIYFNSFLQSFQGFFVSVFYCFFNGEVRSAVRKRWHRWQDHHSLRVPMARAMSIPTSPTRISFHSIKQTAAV
In short: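 ED50 values are means ± SEM over several runs, curve-fitted from cAMP in pmol, calibrated against unlabeled-cAMP standards. Detection was HTRF competition, ratio 665/620 nm, after 30 min agonist exposure at 37 °C.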

human CRHR1 = target: T2, human CRHR1 (Homo sapiens, UniProt P34998); test: human CRHR1 cell-based cAMP assay (Y79 cells); conditions: Y79 cells with endogenous human CRHR1, mean ± SEM of runs, read-out: hCRHR1 Average EC50
T2 construct: which expresses endogenous human CRHR1; host or cells: Y79 human retinoblastoma cells
T2 sequence (P34998 24-415): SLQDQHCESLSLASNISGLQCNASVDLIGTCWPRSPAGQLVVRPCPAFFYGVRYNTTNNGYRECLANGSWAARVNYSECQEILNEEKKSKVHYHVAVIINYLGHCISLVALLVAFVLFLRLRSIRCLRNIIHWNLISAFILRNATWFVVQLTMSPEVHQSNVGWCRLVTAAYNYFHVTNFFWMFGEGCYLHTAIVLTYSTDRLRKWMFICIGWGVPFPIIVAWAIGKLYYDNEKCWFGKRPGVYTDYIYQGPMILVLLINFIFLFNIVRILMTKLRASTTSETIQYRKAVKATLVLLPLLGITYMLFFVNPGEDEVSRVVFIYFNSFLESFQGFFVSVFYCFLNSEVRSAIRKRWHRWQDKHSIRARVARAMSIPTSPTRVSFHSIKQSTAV
Procedure: CRHR agonistic activity is measured in a cell-based cAMP assay. Serial dilutions of the test peptides are made in assay buffer containing Hank's Balanced Salt Solution (HBSS, without phenol red) supplemented with 20 mM HEPES and 0.05% lactalbumin enzymatic hydrolysate (LAH) (“assay buffer”). The highest concentration that is used starts from 1 μM in the human CRHR2b, whereas 100 μM starting concentration is used in the human CRHR1 assay. A one to three dilution of the test peptides is used in both assays.
The human Retinoblastoma cell line Y79 (ATCC #HTB-18), which expresses endogenous human CRHR1, is used in the human CRHR1 assay. The cells are grown in RPMI 1640 (Hyclone, #SH30255) containing 20% fetal bovine serum and 10 mM HEPES, in suspension culture. Cells are centrifuged to remove the culture media and washed once in HBSS supplemented with 20 mM HEPES. The cells are resuspended in the assay buffer and 20,000 cells are used per treatment in the human CRHR1 assay.
The cells are dispensed into Costar 96-well black polystyrene half area EIA/RIA plates (Corning Incorporated, Corning, N.Y.) followed by the addition of the diluted peptides, each at a volume of 20 μL. The agonist induced cAMP levels are detected using a HTRF cAMP Dynamic 2 kit (CisBio, Bedford, Mass.). After incubation at 37° C. for 30 min, the assay is stopped by cell lysis via the addition of 20 μL of d2-labeled cAMP and followed by 20 μL of cryptate-labeled anti-cAMP antibody, as described by the manufacturer. Cellular cAMP (as a result of agonist stimulation) competes with the d2-labeled cAMP for binding to the antibody. HTRF detection is performed on an Envision plate reader (Perkin Elmer Life and Analytical Sciences, Waltham, Mass.) by measuring ratiometric emission at 620 and 665 nm after excitation at 320 nm.
The data are converted to picomoles of cAMP using a standard curve obtained from the same assay performed with varying concentrations of unlabeled cAMP. Percent of the maximum activation of the cells is calculated using converted picomole cAMP data by comparing to the amount of cAMP produced by 1 μM human UCN2 for the human CRHR2b or 1 μM human UCN1 for the human CRHR1 assay. The data are analyzed using a Curve Fitting Tool to calculate ED50. Numeric values shown below in Table 1 represent the mean of multiple runs (number of runs shown in parentheses) following the mean value±SEM.

EC50 (human CRHR2b): 2.5 ± 1.06 nM
EC50 (human CRHR1): > 100000 nM
SMILES: CC[C@H](C)[C@H](NC)C(=O)N[C@H](C(=O)N[C@@H](CC(C)C)C(=O)N[C@@H](CO)C(=O)N[C@@H](CC(C)C)C(=O)N[C@@H](CC(=O)O)C(=O)N[C@H](C(=O)N1CCC[C@H]1C(=O)N[C@H](C(=O)NCC(=O)N[C@@H](CC(C)C)C(=O)N[C@@H](CC(C)C)C(=O)N[C@@H](CCC(N)=O)C(=O)N[C@H](C(=O)N[C@@H](CC(C)C)C(=O)N[C@@H](CC(C)C)C(=O)N[C@@H](CCC(=O)O)C(=O)N[C@@H](CCC(N)=O)C(=O)N[C@@H](CCC(=O)O)C(=O)N[C@@H](CCCCN)C(=O)N[C@@H](CCC(N)=O)C(=O)N[C@@H](CCC(=O)O)C(=O)N[C@@H](CCCCN)C(=O)N[C@@H](CCC(=O)O)C(=O)N[C@@H](CCCCN)C(=O)N[C@@H](CCC(N)=O)C(=O)N[C@@H](CCC(N)=O)C(=O)N[C@@H](C)C(=O)N[C@@H](CCCCNC(=O)COCCOCCNC(=O)COCCOCCNC(=O)CC[C@H](NC(=O)CC[C@H](NC(=O)CCCCCCCCCCCCCCCCCCC(=O)O)C(=O)O)C(=O)O)C(=O)N[C@H](C(=O)N[C@@H](CC(N)=O)C(=O)N[C@@H](C)C(=O)N[C@@H](CCC(=O)O)C(=O)N[C@H](C(=O)N[C@@H](CC(C)C)C(=O)N[C@@H](C)C(=O)N[C@@H](CCC(N)=O)C(=O)N[C@H](C(N)=O)C(C)C)[C@@H](C)CC)[C@@H](C)O)[C@@H](C)CC)[C@@H](C)CC)C(C)C)C(C)C [Example 6] (H-[NMeI]VLSLDVPIGLLQILLEQEKQEKEKQQAK([AEEA-AEEA-γGlu-γGlu-C20 diacid])TNAEILAQV-NH2)
